Test results as given in the supplement of paper PMC11451515.

Legend:
Settings in all cases: 48 h
SEM cells [1] = test: AUC of viability dose-response curve (% viability x log10 dose units); higher = less sensitive
Method in brief: (§1)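 Leukemia cells adapted to each medium were seeded in 1536-well plates (500 or 1000 cells/well). They were dosed with library compounds in DMSO at 11 threefold doses, 47 μM to 0.79 nM, for 48 h at 37°C. CellTiter-Glo One luminescence was normalised per plate to DMSO and cell-free wells. Area under the curve was integrated by trapezoidal rule over log10 doses on a four-parameter log-logistic fit; curves exceeding full viability were scaled and curves failing quality control removed.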

NOMO1 [2] = test: as above
Method in brief: as §1

P12-Ichikawa [3] = test: as above
Method in brief: as §1

SEM cells [4] = test: cell viability relative to DMSO control; higher = less cytotoxic
Method in brief: (§2)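 Leukemia cells (NOMO1 or SEM, 500 cells/well; P12-Ichikawa, 1000 cells/well) were seeded in 5 μl in 1536-well plates after at least four passages of adaptation to each medium. They received library compounds in DMSO by pin dosing, 11 threefold points from 47 μM to 0.79 nM. Luminescence with CellTiter-Glo One was read after 48 h at 37°C. Viability is stated per plate relative to DMSO wells, with cell-free wells as background.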

NOMO1 [5] = test: as above
Method in brief: as §2

P12-Ichikawa [6] = test: as above
Method in brief: as §2

[7] = RPMI 5 mM glucose + 10% dialyzed FBS
[8] = HPLM + 10% dialyzed FBS, 0.000781 µM
[9] = HPLM + 10% dialyzed FBS, 0.00234 µM
[10] = HPLM + 10% dialyzed FBS, 0.00702 µM
[11] = HPLM + 10% dialyzed FBS, 0.0211 µM
[12] = HPLM + 10% dialyzed FBS, 0.0632 µM
[13] = HPLM + 10% dialyzed FBS, 0.19 µM
[14] = HPLM + 10% dialyzed FBS, 0.569 µM
[15] = HPLM + 10% dialyzed FBS, 1.71 µM
[16] = HPLM + 10% dialyzed FBS, 5.12 µM
[17] = HPLM + 10% dialyzed FBS, 15.4 µM
[18] = HPLM + 10% dialyzed FBS, 46.1 µM
[19] = RPMI 5 mM glucose + 10% FBS, 0.000781 µM
[20] = RPMI 5 mM glucose + 10% FBS, 0.00234 µM
[21] = RPMI 5 mM glucose + 10% FBS, 0.00702 µM
[22] = RPMI 5 mM glucose + 10% FBS, 0.0211 µM
[23] = RPMI 5 mM glucose + 10% FBS, 0.0632 µM
[24] = RPMI 5 mM glucose + 10% FBS, 0.19 µM
[25] = RPMI 5 mM glucose + 10% FBS, 0.569 µM
[26] = RPMI 5 mM glucose + 10% FBS, 1.71 µM
[27] = RPMI 5 mM glucose + 10% FBS, 5.12 µM
[28] = RPMI 5 mM glucose + 10% FBS, 15.4 µM
[29] = RPMI 5 mM glucose + 10% FBS, 46.1 µM
[30] = RPMI 5 mM glucose + 10% dialyzed FBS, 0.000781 µM
[31] = RPMI 5 mM glucose + 10% dialyzed FBS, 0.00234 µM
[32] = RPMI 5 mM glucose + 10% dialyzed FBS, 0.00702 µM
[33] = RPMI 5 mM glucose + 10% dialyzed FBS, 0.0211 µM
[34] = RPMI 5 mM glucose + 10% dialyzed FBS, 0.0632 µM
[35] = RPMI 5 mM glucose + 10% dialyzed FBS, 0.19 µM
[36] = RPMI 5 mM glucose + 10% dialyzed FBS, 0.569 µM
[37] = RPMI 5 mM glucose + 10% dialyzed FBS, 1.71 µM
[38] = RPMI 5 mM glucose + 10% dialyzed FBS, 5.12 µM
[39] = RPMI 5 mM glucose + 10% dialyzed FBS, 15.4 µM
[40] = RPMI 5 mM glucose + 10% dialyzed FBS, 46.1 µM

In the case of `ClC/1=C(NCCN2CCOCC2)/C(=O)C3=C(C=CC=N3)C1=O`, the “AUC of viability dose-response curve” value (SEM cells [1]; HPLM + 10% dialyzed FBS) is reported as 410, the “AUC of viability dose-response curve” value (SEM cells [1]; RPMI 5 mM glucose + 10% FBS) is reported as 381 and the “AUC of viability dose-response curve” value (SEM cells [1]; [7]) is reported as 392. For the same molecule, the “AUC of viability dose-response curve” value (NOMO1 [2]; HPLM + 10% dialyzed FBS) was 416, the “AUC of viability dose-response curve” value (NOMO1 [2]; RPMI 5 mM glucose + 10% FBS) was 410 and the “AUC of viability dose-response curve” value (NOMO1 [2]; [7]) was 406. For the same molecule, the “AUC of viability dose-response curve” value (P12-Ichikawa [3]; HPLM + 10% dialyzed FBS) was 450, the “AUC of viability dose-response curve” value (P12-Ichikawa [3]; RPMI 5 mM glucose + 10% FBS) was 445 and the “AUC of viability dose-response curve” value (P12-Ichikawa [3]; [7]) was 438. The cell viability (SEM cells [4]; [8]) was 104%, the cell viability (SEM cells [4]; [9]) was 105% and the cell viability (SEM cells [4]; [10]) was 121%. It also gave a cell viability (SEM cells [4]; [11]) of 118%, a cell viability (SEM cells [4]; [12]) of 131% and a cell viability (SEM cells [4]; [13]) of 127%. For the same molecule, the cell viability (SEM cells [4]; [14]) was 127%, the cell viability (SEM cells [4]; [15]) was 115% and the cell viability (SEM cells [4]; [16]) was 95.4%. The cell viability (SEM cells [4]; [17]) was 35.8% and the cell viability (SEM cells [4]; [18]) was 4.66%.
`O=C(Nc1cc(C(F)(F)F)cc(C(F)(F)F)c1)c1cc(Cl)ccc1O` was tested, and the “AUC of viability dose-response curve” value (SEM cells [1]; HPLM + 10% dialyzed FBS) was 373, the “AUC of viability dose-response curve” value (SEM cells [1]; RPMI 5 mM glucose + 10% FBS) was 357 and the “AUC of viability dose-response curve” value (SEM cells [1]; [7]) was 370. For the same molecule, the “AUC of viability dose-response curve” value (NOMO1 [2]; HPLM + 10% dialyzed FBS) was 361, the “AUC of viability dose-response curve” value (NOMO1 [2]; RPMI 5 mM glucose + 10% FBS) was 368 and the “AUC of viability dose-response curve” value (NOMO1 [2]; [7]) was 363. The “AUC of viability dose-response curve” value (P12-Ichikawa [3]; HPLM + 10% dialyzed FBS) was 368, the “AUC of viability dose-response curve” value (P12-Ichikawa [3]; RPMI 5 mM glucose + 10% FBS) was 361 and the “AUC of viability dose-response curve” value (P12-Ichikawa [3]; [7]) was 361.
For `C=C[C@H]1CN2CCC1C[C@@H]2C(O)c1ccnc2ccc(OC)cc12` (stereo partly drawn), the “AUC of viability dose-response curve” value (NOMO1 [2]; HPLM + 10% dialyzed FBS) was 462, the “AUC of viability dose-response curve” value (NOMO1 [2]; RPMI 5 mM glucose + 10% FBS) was 467 and the “AUC of viability dose-response curve” value (NOMO1 [2]; [7]) was 463. For the same molecule, the “AUC of viability dose-response curve” value (P12-Ichikawa [3]; HPLM + 10% dialyzed FBS) was 473, the “AUC of viability dose-response curve” value (P12-Ichikawa [3]; RPMI 5 mM glucose + 10% FBS) was 470 and the “AUC of viability dose-response curve” value (P12-Ichikawa [3]; [7]) was 467. For the same molecule, the cell viability (SEM cells [4]; [8]) was 118%, the cell viability (SEM cells [4]; [9]) was 146% and the cell viability (SEM cells [4]; [10]) was 116%. The cell viability (SEM cells [4]; [11]) was 22.4%, the cell viability (SEM cells [4]; [12]) was 131% and the cell viability (SEM cells [4]; [13]) was 115%. The cell viability (SEM cells [4]; [14]) was 121%, the cell viability (SEM cells [4]; [15]) was 111% and the cell viability (SEM cells [4]; [16]) was 126%. It also gave a cell viability (SEM cells [4]; [17]) of 113%, a cell viability (SEM cells [4]; [18]) of 111% and a cell viability (SEM cells [4]; [19]) of 67.5%. It also gave a cell viability (SEM cells [4]; [20]) of 77.6%, a cell viability (SEM cells [4]; [21]) of 104% and a cell viability (SEM cells [4]; [22]) of 11.3%. It also gave a cell viability (SEM cells [4]; [23]) of 99.7%, a cell viability (SEM cells [4]; [24]) of 96.1% and a cell viability (SEM cells [4]; [25]) of 82%. For the same molecule, the cell viability (SEM cells [4]; [26]) was 77%, the cell viability (SEM cells [4]; [27]) was 94.6% and the cell viability (SEM cells [4]; [28]) was 84.6%. For the same molecule, the cell viability (SEM cells [4]; [29]) was 63%, the cell viability (SEM cells [4]; [30]) was 121% and the cell viability (SEM cells [4]; [31]) was 123%. The cell viability (SEM cells [4]; [32]) was 138%, the cell viability (SEM cells [4]; [33]) was 23.6% and the cell viability (SEM cells [4]; [34]) was 129%. It also gave a cell viability (SEM cells [4]; [35]) of 121%, a cell viability (SEM cells [4]; [36]) of 112% and a cell viability (SEM cells [4]; [37]) of 127%. For the same molecule, the cell viability (SEM cells [4]; [38]) was 131%, the cell viability (SEM cells [4]; [39]) was 132% and the cell viability (SEM cells [4]; [40]) was 97.5%. For the same molecule, the cell viability (NOMO1 [5]; [8]) was 111%, the cell viability (NOMO1 [5]; [9]) was 133% and the cell viability (NOMO1 [5]; [10]) was 115%. The cell viability (NOMO1 [5]; [11]) was 107%, the cell viability (NOMO1 [5]; [12]) was 135% and the cell viability (NOMO1 [5]; [13]) was 116%. For the same molecule, the cell viability (NOMO1 [5]; [14]) was 128%, the cell viability (NOMO1 [5]; [15]) was 108% and the cell viability (NOMO1 [5]; [16]) was 105%. The cell viability (NOMO1 [5]; [17]) was 125%, the cell viability (NOMO1 [5]; [18]) was 102% and the cell viability (NOMO1 [5]; [19]) was 111%. For the same molecule, the cell viability (NOMO1 [5]; [20]) was 116%, the cell viability (NOMO1 [5]; [21]) was 114% and the cell viability (NOMO1 [5]; [22]) was 108%. The cell viability (NOMO1 [5]; [23]) was 127%, the cell viability (NOMO1 [5]; [24]) was 120% and the cell viability (NOMO1 [5]; [25]) was 119%. The cell viability (NOMO1 [5]; [26]) was 119%, the cell viability (NOMO1 [5]; [27]) was 116% and the cell viability (NOMO1 [5]; [28]) was 107%. The cell viability (NOMO1 [5]; [29]) was 104%, the cell viability (NOMO1 [5]; [30]) was 110% and the cell viability (NOMO1 [5]; [31]) was 119%. It also gave a cell viability (NOMO1 [5]; [32]) of 116%, a cell viability (NOMO1 [5]; [33]) of 121% and a cell viability (NOMO1 [5]; [34]) of 124%. For the same molecule, the cell viability (NOMO1 [5]; [35]) was 110%, the cell viability (NOMO1 [5]; [36]) was 127% and the cell viability (NOMO1 [5]; [37]) was 117%. The cell viability (NOMO1 [5]; [38]) was 106%, the cell viability (NOMO1 [5]; [39]) was 107% and the cell viability (NOMO1 [5]; [40]) was 100%. The cell viability (P12-Ichikawa [6]; [8]) was 112%, the cell viability (P12-Ichikawa [6]; [9]) was 131% and the cell viability (P12-Ichikawa [6]; [10]) was 117%. The cell viability (P12-Ichikawa [6]; [11]) was 119%, the cell viability (P12-Ichikawa [6]; [12]) was 127% and the cell viability (P12-Ichikawa [6]; [13]) was 122%. It also gave a cell viability (P12-Ichikawa [6]; [14]) of 123%, a cell viability (P12-Ichikawa [6]; [15]) of 133% and a cell viability (P12-Ichikawa [6]; [16]) of 123%. The cell viability (P12-Ichikawa [6]; [17]) was 122%, the cell viability (P12-Ichikawa [6]; [18]) was 103% and the cell viability (P12-Ichikawa [6]; [30]) was 125%. It also gave a cell viability (P12-Ichikawa [6]; [31]) of 121%, a cell viability (P12-Ichikawa [6]; [32]) of 120% and a cell viability (P12-Ichikawa [6]; [33]) of 128%. The cell viability (P12-Ichikawa [6]; [34]) was 145%, the cell viability (P12-Ichikawa [6]; [35]) was 128% and the cell viability (P12-Ichikawa [6]; [36]) was 136%. For the same molecule, the cell viability (P12-Ichikawa [6]; [37]) was 133%, the cell viability (P12-Ichikawa [6]; [38]) was 123% and the cell viability (P12-Ichikawa [6]; [39]) was 135%. For the same molecule, the cell viability (P12-Ichikawa [6]; [40]) was 124%.
